From patent US8895260B2, “Screening assay for ribosomal antibiotics” (priority 2006, dated 2014)

Assays:
Assay type in all cases: cell-based, Mycobacterium smegmatis
[1] = system: mutant bacterial cells 1408G; experiment: MIC of rRNA mutants, mutant bacterial cells 1408G (human cytoplasmic nucleotide at 16S rRNA position 1408)
Procedure: (§1) The recombinants carrying the respective mutational alterations in the functional rRNA operon were colony-purified and subjected to determinations of minimal inhibitory concentrations (MIC) to determine ribosomal drug susceptibility. Cultures from single colonies were grown in LB medium supplemented with 0.05% Tween 80 and used for MIC tests in a microtiter plate format. Starting cultures contained 200 μl of bacterial cells at an optical density of 0.025 at 600 nm, and the respective drug was added in twofold series of dilution.
(§2) This was illustrated by the polymorphism of 16S rRNA position 1408 and susceptibility to 4,6-aminoglycosides with a 6′ NH3 group (e.g. gentamicin, tobramycin, kanamycin). 4,6-aminoglycosides with a 6′ NH3 group bound to the ribosomal A-site encompassing nucleotides […] and selectively targeted the bacterial ribosome, but not the eukaryotic cytoplasmic ribosome. An important polymorphism in the rRNA concerns nucleotide position 1408: prokaryotic ribosomes are characterized by an adenine, eukaryotic cytoplasmic ribosomes by a guanine. Replacing the adenine by a guanine at 16S rRNA position 1408 made the bacterial ribosome completely unsusceptible towards 4,6-amino-glycosides with a 6′ NH3 group (see Table). […]

[2] = system: wild type bacterial cells 1408A; experiment: MIC of rRNA mutants, wild type bacterial cells 1408A
Procedure: as §1, §2

M. smegmatis = experiment: MIC, M. smegmatis with bacterial rRNA decoding site; design: unit not given here
Procedure: as §1
(§3) The MIC data shown below in example 5 were obtained with bacterial hybrid ribosomes carrying human and protozoan rRNA decoding sites in a method of the invention. […] Nucleotide positions depicted in bold represent residues that are specific for the corresponding eukaryotic decoding site. The part of the human and protozoan decoding sites introduced into the bacterial ribsosome is boxed. The nucleotide positions are numbered according to the numbering of homologous positions in E. coli 16S rRNA.

[3] = system: bacterial hybrid ribosomes carrying Homo sapiens mitochondrion rRNA decoding site; experiment: MIC, bacterial hybrid ribosomes carrying human mitochondrial rRNA decoding site; design: unit not given here; settings: Homo sapiens mitochondrion decoding site in bacterial hybrid ribosome
Procedure: as §1, §3

[4] = system: bacterial hybrid ribosomes carrying Leishmania Trypanosoma rRNA decoding site; experiment: MIC, bacterial hybrid ribosomes carrying protozoan rRNA decoding site; design: unit not given here; settings: Leishmania Trypanosoma decoding site in bacterial hybrid ribosome
Procedure: as §1, §3

NC[C@H]1O[C@H](O[C@H]2[C@H](O)[C@@H](O[C@H]3O[C@H](CO)[C@@H](O)[C@H](N)[C@H]3O)[C@H](N)C[C@@H]2N)[C@H](N)C[C@@H]1O [Tobramycin]
MIC ([1]; Mycolicibacterium smegmatis, CELLS1408G, 72 h, read-out: MIC, minimal inhibitory concentration): > 1020 mg/L
MIC ([2]; Mycolicibacterium smegmatis, 72 h, read-out: MIC, minimal inhibitory concentration): 2 mg/L

Gentamicin
MIC (M. smegmatis): 1
MIC [3]: 64-128
MIC, minimal inhibitory concentration ([1]; mutant bacterial cells 1408G, 72h at 37° C.): >1024 mg/L
MIC [4]: >1024
MIC, minimal inhibitory concentration ([2]; wild type bacterial cells 1408A, 72h at 37° C.): 1 mg/L

Neomycin
MIC (M. smegmatis): 0.5
MIC [3]: 16-32
MIC [4]: >1024
